Read-outs that look alike come from different tables or passages of the source.
Experiments:
hippocampal astrocytes [1] = assay: Extracellular glutamate [Glu]o released by astrocyte cultures (bioluminescence); format: cell-based, rat; details: for activity at 100 µM: read-out: % of control [Glu]0
hippocampal astrocytes [2] = assay: 3H-D-aspartate (glutamate/aspartate) uptake in astrocytes; format: cell-based, rat; details: for activation at 500 µM: Rattus norvegicus, Astrocyte, 0.5 mM, 24 hour exposure, average of 25 experiments, read-out: glutamate/aspartate uptake enhanced by
Experimental: Uptake procedures were essentially identical to those previously described (Kimelberg et al. 1989; Ye et al., 1996). Briefly, 5-10 minutes before assessing uptake, astrocytes were washed and kept in a solution containing (in mM): NaCl 122, KCl 3, MgSO4 0.4, KH2 PO4 1.2, NaHCO3 25, D-glucose 10, and CaCl2 1.3, at 37° C., bubbled with 5%/95% CO2 /O2. Then the cells were switched to the above solution supplemented with 0.1 mM D-aspartate and 0.4 μCi/ml ^3 H-D-aspartate. Glutamate/aspartate uptake was determined over a 10 or 30 minutes period and was terminated by three quick washes, twice with ice cold 0.29 M sucrose solution with 10 mM Tris Nitrate, 0.5 mM Ca(NO3)2, (pH 7.40 by NaOH) and then with ice cold PBS. Cells were then harvested after a 30 minute incubation in 0.3 N NaOH solution (37° C.) and ^3 H activity was determined in a liquid scintillation counter (Beckman). Total uptake was normalized to protein content to eliminate variability due to cell number. Protein levels were determined using the bicinchoninic acid (BCA) assay (Pierce; Rockford, Ill.).

hippocampal astrocytes [3] = assay: Intracellular glutamate content [Glu]i of astrocytes; format: cell-based, rat; details: Rattus norvegicus, Astrocyte, 24 h; highest dose used (1 mM), chronic treatment
Experimental: For experiments in which [Glu]o concentrations were assessed by the bioluminescence method, cells were maintained in glutamate-depleted medium in the presence or absence of the agonists/antagonist combination of interest. […] After the incubation period, the stimulation media (containing drugs of interest) were aspirated and cells were washed twice with MEM and allowed to remain for 30 to 60 minutes in drug free MEM supplemented with 20 mM glucose prior to taking media samples for glutamate measurements. To assess acute drug effects, untreated cells were washed and the reagent of interest applied in glucose supplemented MEM. Cells were harvested in 0.3 N NaOH and neutralized with 0.3 N HCl. Aliquots were stored in -20° C. for protein and [Glu]i determination. Glutamate standards used for calibration were prepared in MEM (For [Glu]i in 0.15 N NaCl).

hippocampal astrocytes [4] = assay: Removal of an exogenous glutamate challenge by astrocyte cultures, [Glu]o over time; format: cell-based, rat
Experimental: The bioluminescence method for detection was used for glutamate in solution as described by Fosse et al. (1986) with only minor modifications. The glutamate-specific reagent mixture contained potassium phosphate (pH 7.0) 25 mM, Triton X-100 40 μg/ml, dithiothreitol 100 μM, Myristyl aldehyde 40 μM (Aldrich; Milwaukee, Wis.), β-NAD 2 mM, ADP 250 μM, FMN 2.5 μM, luciferase 40 μg/ml, NAD(P)H:FMN oxidoreductase 400 mU/ml, glutamate dehydrogenase 0.5 mg/ml. All experiments were performed with a Monolight 2010 luminomitor (Analytical Luminescence Lab; Ann Arbor, Mich.).
For experiments in which [Glu]o concentrations were assessed by the bioluminescence method, cells were maintained in glutamate-depleted medium in the presence or absence of the agonists/antagonist combination of interest. To assess chronic effects, glutamate analogues were applied for 24 hours unless indicated otherwise. After the incubation period, the stimulation media (containing drugs of interest) were aspirated and cells were washed twice with MEM and allowed to remain for 30 to 60 minutes in drug free MEM supplemented with 20 mM glucose prior to taking media samples for glutamate measurements. To assess acute drug effects, untreated cells were washed and the reagent of interest applied in glucose supplemented MEM. Cells were harvested in 0.3 N NaOH and neutralized with 0.3 N HCl. Aliquots were stored in -20° C. for protein and [Glu]i determination. Glutamate standards used for calibration were prepared in MEM (For [Glu]i in 0.15 N NaCl).
To delineate the role of mGluR receptors on [Glu]o levels, hippocampal astrocytes were challenged with 50 μM glutamate and cells that were pretreated with trans-ACPD were compared to control cultures (FIG. 2A). Control astrocytes rapidly remove glutamate from the medium, and after ≈3 hours, [Glu]o stabilized at values to 1 μM. […] Mean values were 0.96±0.1 μM in control astrocytes, as compared to 0.18±0.03 μM in trans-ACPD treated astrocytes.
Glutamate undoubtedly is the endogenous ligand for mGluRs. However, it was necessary to establish whether glutamate itself can induce the modulation in glutamate levels observed, and thus can mimic the modulatory effects observed with ACPD. These studies are difficult since, unlike ACPD, glutamate is also a substrate for the transporter, and therefore, is readily removed. Experiments were carried out in two ways, each yielding similar results. First, cells were preincubated for 24 hours with 100 μM glutamate, then washed and [Glu]o measured in MEM, or secondly, glutamate was directly applied in MEM and changes in [Glu]o were monitored.

[5] = system: rat hippocampal brain slices; assay: THA-induced glutamate release in acute hippocampal brain sections; format: cell-based; details: 400 min pretreatment
Source text: This was accomplished using THA, a heteroexchange drug that is also a substrate for the glutamate transporter. For each molecule of THA transported into the cell, one molecule of glutamate is released. Therefore, THA allows the induction of glutamate release.

glial cells = assay: Glial glutamate uptake and extracellular glutamate with MPTP/MPP+ and t-ACPD; format: cell-based
Experimental: The normally low glutamate levels in the brain are established and maintained in glial cells by non-vesicular uptake of glutamate through a Na^+ -dependent transporter (FIG. 14). Once taken up, glutamate can be converted to glutamine and recycled for neurotransmitter synthesis in neurons (FIG. 14). If glial cells in culture are exposed to high glutamate concentrations (e.g., 100 μM), they will remove it from the extracellular space and essentially "detoxify" the neuronal environment. […] Under those conditions, extracellular glutamate levels are elevated to 7 μM (FIG. 16), which is toxic to most surrounding neurons.
Impaired glial glutamate transport may contribute to the loss of dopaminergic neurons in Parkinson's disease. Thus, stimulation of this pathway would be neuroprotective. A drug and its receptor on glial cells was identified that allows enhanced glutamate detoxification. Specifically, trans-ACPD (trans-1-amino-1,3-cyclopentane dicarboxylic acid) (t-ACPD), a group II metabotropic glutamate receptor agonist, enhanced glial glutamate uptake (FIG. 17). It's actions were 2-fold; (i) it enhanced glutamate uptake by up to 80%, and (ii) it decreased non-specific release of glutamate, effectively trapping glutamate inside glial cells. In fact, the release of glutamate decreased to such a large extent that it almost made the transporter rectify, e.g. allowing only influx and preventing outflow of glutamate (FIG. 18). […] Using antibodies and further pharmacological studies, the receptor that is responsible for these effects has been identified as mGluR2/3.
In Parkinson's disease, it is believed that neurons may die of excitotoxic exposure to glutamate. The present invention determined that MPTP directly effects glutamate uptake into astrocytes (FIG. 21, top left). […] This increased release may be sufficient to explain some of the subsequent neurodegeneration.

dopaminergic neurons = assay: Cell death of dopaminergic neurons induced by glutamate or MPTP; format: cell-based, rat
Experimental: Cell death of dopaminergic neurons induced by glutamate, and the role of glial glutamate transport in protection of cell death at the cellular level were studied as it relates to Parkinson's disease. […] Thus, glutamate concentrations as low as 3-5 μM induced rapid cell death (FIGS. 11 and 12). Glutamate concentrations were also measured in the normal brain. They are typically around 1 μM, below the toxic level for dopaminergic neurons. […] This late onset of glutamate toxicity is compatible with the late onset of Parkinson's disease.

GLT-1 = details: cited from earlier work
[6] = 500 μM for 24 hour before 50 μM glutamate challenge

## N[C@@]1(C(=O)O)CC[C@@H](C(=O)O)C1 [1S3R-ACPD, (1S,3R)-1-aminocyclopentane-1,3-dicarboxylic acid]
Hippocampal astrocytes [1]
  more effective than 1R3S-ACPD in reducing glutamate release: ≈ 100 fold
Hippocampal astrocytes [1]; 50 μM in glutamate-free MEM
  time to steady-state [Glu]o, acute application: ≈ 2 hours
Hippocampal astrocytes [1]; 50 μM in glutamate-free, glucose-supplemented MEM
  steady-state [Glu]o, acute application: 0.3 to 0.4 µM
Hippocampal astrocytes [1]; 100 μM for 24 hours pretreatment, any THA concentration
  THA-induced glutamate release lower in treated cells: 3-5 fold
Hippocampal astrocytes [1]; 100 μM, 24 h pretreatment, hypotonic 153 mOsm
  swelling induced glutamate release: inhibited swelling induced glutamate release to some extent
Hippocampal astrocytes [1]; 200 μM
  preincubation time for maximal effects: ≈ 14 hours
Hippocampal astrocytes [1]; 200 μM, preincubation 0.5-36 hours
  ET50 of attenuation of [Glu]o versus preincubation time: ≈ 1 hour
Hippocampal astrocytes [1]; FIG. 7B
  order of potency in mimicking ACPD effect on glutamate release: S-4CPG>1S3R-ACPD>L-CCG-I>1S3S-ACPD=QA
Hippocampal astrocytes [1]; Rattus norvegicus, Astrocyte, 14 h, 200 μM, ≈14 hours preincubation, read-out: [Glu]o levels at maximal effect
  activity at 200 µM: < 30%
Hippocampal astrocytes [1]; Rattus norvegicus, Astrocyte, 408 h, cells P22, 17 days in vitro, 100 μM agonist
  activity at 100 µM: 17.3 ± 1.2%
Hippocampal astrocytes [1]; Rattus norvegicus, Astrocyte, 408 h, cells P22, 17 days in vitro, 200 μM agonist
  activity at 100 µM: 14.8 ± 4.3%
Hippocampal astrocytes [1]; Rattus norvegicus, Astrocyte, 480 h, cells P16, 20 days in vitro, 10 μM agonist
  activity at 100 µM: 32.5 ± 4.7%
Hippocampal astrocytes [1]; Rattus norvegicus, Astrocyte, 528 h, cells P2, 22 days in vitro, 100 μM agonist
  activity at 100 µM: 73.4 ± 2.9%
Hippocampal astrocytes [1]; Rattus norvegicus, Astrocyte, 528 h, cells P13, 22 days in vitro, 100 μM agonist
  activity at 100 µM: 34.1 ± 5.6%
Hippocampal astrocytes [1]; Rattus norvegicus, Astrocyte, 552 h, cells P9, 23 days in vitro, 100 μM agonist
  activity at 100 µM: 45.8 ± 11.9%
Hippocampal astrocytes [1]; Rattus norvegicus, Astrocyte, cells P2, 30 days in vitro, 100 μM agonist
  activity at 100 µM: 66.9 ± 9.9%
Hippocampal astrocytes [1]; Rattus norvegicus, Astrocyte, cells P9, 36 days in vitro, 100 μM agonist
  activity at 100 µM: 66.5 ± 6.29%
Hippocampal astrocytes [1]; Rattus norvegicus, Astrocyte, cells P10, 32 days in vitro, 250 μM agonist
  activity at 100 µM: 24.1 ± 7.8%
Hippocampal astrocytes [1]; Rattus norvegicus, Astrocyte, cells P22, 40 days in vitro, 250 μM agonist
  activity at 100 µM: 29 ± 5.4%
Hippocampal astrocytes [1]; Rattus norvegicus, Astrocyte, 24 hours treatment, dose-effect curve, read-out: EC50, reduction of glutamate release
  EC50: 2 to 5 µM
Hippocampal astrocytes [1]; cells treated for 24 hours, then MEM
  effect on [Glu]o / glutamate release: reduce [Glu]o in a dose-dependent manner
Hippocampal astrocytes [2]
  activation at 500 µM: 31 ± 2.7%
Hippocampal astrocytes [3]
  activity at 1000 µM: 85.2 ± 5.1%

## N[C@@]1(C(=O)O)CC[C@@H](C(=O)O)C1 (relative stereo) [trans-ACPD, trans-1-aminocyclopentane-1,3-dicarboxylic acid]
Hippocampal astrocytes [1]; Rattus norvegicus, Astrocyte, 432 h, cells P9, 18 days in vitro, 250 μM agonist
  activity at 100 µM: 46.3 ± 4.3%
Hippocampal astrocytes [1]; Rattus norvegicus, Astrocyte, 432 h, cells P23, 18 days in vitro, 200 μM agonist
  activity at 100 µM: 12.4 ± 1.2%
Hippocampal astrocytes [1]; Rattus norvegicus, Astrocyte, 456 h, cells P21, 19 days in vitro, 100 μM agonist
  activity at 100 µM: 23.1 ± 1.4%
Hippocampal astrocytes [1]; Rattus norvegicus, Astrocyte, 624 h, cells P15, 26 days in vitro, 100 μM agonist
  activity at 100 µM: 20 ± 6.1%
Hippocampal astrocytes [1]; Rattus norvegicus, Astrocyte, 672 h, cells P2, 28 days in vitro, 500 μM agonist
  activity at 100 µM: 78.2 ± 10.1%
Hippocampal astrocytes [1]; Rattus norvegicus, Astrocyte, cells P0, 60 days in vitro, 100 μM agonist
  activity at 100 µM: 60.6 ± 6.3%
Hippocampal astrocytes [1]; Rattus norvegicus, Astrocyte, cells P2, 25 days in vitro, 500 μM agonist
  activity at 100 µM: 59.6 ± 10.1%
Hippocampal astrocytes [1]; Rattus norvegicus, Astrocyte, cells P2, 34 days in vitro, 100 μM agonist
  activity at 100 µM: 51.3 ± 5.7%
Hippocampal astrocytes [1]; Rattus norvegicus, Astrocyte, cells P40, 31 days in vitro, 100 μM agonist
  activity at 100 µM: 19.5 ± 2.7%
Hippocampal astrocytes [4]; [6]
  steady-state [Glu]o after glutamate challenge: 0.18 ± 0.03 µM
  steady-state [Glu]o lower than in control cultures: 5 fold
Hippocampal astrocytes [2]
  activation at 500 µM: 31 ± 2.7%
[5]
  reduction of THA-induced glutamate release: ≈ 40%
Glial cells
  enhancement of glutamate uptake: up to 80%
Glial cells; neuron-glial cocultures (FIG. 19)
  reduction of extracellular glutamate levels versus control: up to 100%

## N[C@]1(C(=O)O)CC[C@H](C(=O)O)C1 [1R3S-ACPD, (1R,3S)-1-aminocyclopentane-1,3-dicarboxylic acid]
Hippocampal astrocytes [1]; Rattus norvegicus, Astrocyte, 24 hours treatment, read-out: concentrations required to achieve any significant effect on glutamate release
  minimal effective concentration: > 50 µM
Hippocampal astrocytes [2]; KA or NMDA 1 mM, 24 hours
  effect on aspartate uptake: No significant effects
Hippocampal astrocytes [3]
  activity at 1000 µM: 18.4 ± 0.9%

## N[C@@H](CCC(=O)O)C(=O)O [glutamate]
Hippocampal astrocytes [4]; 100 μM glutamate
  duration of glutamate undershoot: approximately 10 hours
Hippocampal astrocytes [4]; 100 μM glutamate several hours before, 200 μM THA
  THA induced glutamate release during undershoot: induced less glutamate release
Hippocampal astrocytes [4]; 100 μM glutamate, P22 astrocyte culture
  [Glu]o undershoot level after glutamate challenge: ≈ 0.4 μM
Dopaminergic neurons
  IC50: ~5 µM
Dopaminergic neurons; 0.03 mM
  neuronal cell death: neurotoxic to most neurons
Dopaminergic neurons; adult rats (>30 days)
  susceptibility of neurons to glutamate by age: highest glutamate sensitivity
Dopaminergic neurons; rat
  glutamate concentrations inducing rapid cell death: 3 to 5 µM
Dopaminergic neurons; young rats
  susceptibility of neurons to glutamate by age: relatively insensitive
GLT-1
  Km: 2 µM

Reference: patent US6013672A, “Agonists of metabotropic glutamate receptors and uses thereof” (UAB Research Foundation, priority 1997, dated 2000)
